From ChEMBL document CHEMBL4020806, “Evaluation of the antiprotozoan properties of 5'-norcarbocyclic pyrimidine nucleosides” (Bioorg Med Chem Lett, 2017)

Legend:
Type in all cases: functional
Trypanosoma brucei [1] = experiment: Antiprotozoal activity against bloodstream form of wild type Trypanosoma brucei after 16 hrs by Alamar Blue assay
Leishmania mexicana [2] = experiment: Resistance factor, ratio of EC50 for 5FU resistant Leishmania mexicana to EC50 for wild type Leishmania mexicana
Trypanosoma brucei [3] = experiment: Resistance factor, ratio of EC50 for PYR6-5 deficient bloodstream form of 5-FU hypersensitive Trypanosoma brucei to EC50 for wild type Trypanosoma brucei
Trypanosoma brucei [4] = experiment: Antiprotozoal activity against PYR6-5 deficient bloodstream form of 5-FU hypersensitive Trypanosoma brucei after 16 hrs by Alamar Blue assay
Trypanosoma brucei [5] = experiment: Resistance factor, ratio of EC50 for multi-drug resistant Trypanosoma brucei B48 to EC50 for wild type Trypanosoma brucei
Trypanosoma brucei [6] = experiment: Antiprotozoal activity against bloodstream form of multi-drug resistant Trypanosoma brucei B48 after 16 hrs by Alamar Blue assay; conditions: B48, 16 h
Trypanosoma brucei [7] = experiment: Resistance factor, ratio of EC50 for 5FU resistant Trypanosoma brucei to EC50 for wild type Trypanosoma brucei
Trypanosoma brucei [8] = experiment: Antiprotozoal activity against bloodstream form of 5FU resistant Trypanosoma brucei after 16 hrs by Alamar Blue assay
Leishmania mexicana [9] = experiment: Antileishmanial activity against wild type Leishmania mexicana after 16 hrs by Alamar Blue assay
Leishmania mexicana [10] = experiment: Antileishmanial activity against 5FU resistant Leishmania mexicana after 16 hrs by Alamar Blue assay

SMILES	EC50 (Trypanosoma brucei [1]) [µM]	Ratio EC50 (Leishmania mexicana [2])	Ratio EC50 (Trypanosoma brucei [3])	EC50 (Trypanosoma brucei [4]) [µM]	Ratio EC50 (Trypanosoma brucei [5])	EC50 (Trypanosoma brucei [6]) [µM]	Ratio EC50 (Trypanosoma brucei [7])	EC50 (Trypanosoma brucei [8]) [µM]	EC50 (Leishmania mexicana [9]) [µM]	EC50 (Leishmania mexicana [10]) [µM]
Cc1ccc(Nc2cn([C@H]3C=C[C@@H](O)C3)c(=O)[nH]c2=O)cc1	31.7	1.02	0.78	24.7	1	31	0.54	17.1	94.6	96.7
Cc1cc(C)cc(C(=O)O[C@@H]2C=C[C@H](n3ccc(=O)n(Cc4ccccc4)c3=O)C2)c1	8.6	0.79	1.29	11.1	1	8.7	1.01	8.7	31.8	25.1
Cc1cc(C)cc(C(=O)O[C@@H]2C=C[C@H](n3ccc(=O)n(C(=O)c4cc(C)cc(C)c4)c3=O)C2)c1	23.8	0.61	1.03	24.4	0.9	21.9	0.85	20.2	38.9	23.6
O=c1[nH]cc(F)c(=O)[nH]1 [FLUOROURACIL]	66	322	0.034	2.3	1.1	74.6	59.17	3900	7.7	2470
COc1ccc(Cn2c(=O)cc(C)n([C@H]3C=C[C@@H](OC(=O)c4ccccc4)C3)c2=O)cc1	30.5	1.29	0.93	28.3	0.9	27.2	0.66	20.3	33.8	43.6
O=C(O[C@@H]1C=C[C@H](n2cc(Br)c(=O)[nH]c2=O)C1)c1ccccc1	29.8	1.02	0.85	25.3	0.8	23.9	0.59	17.7	90.4	91.9
N=C(N)c1ccc(OCCCCCOc2ccc(C(=N)N)cc2)cc1 [PENTAMIDINE]	0.0057	0.86	0.89	0.0051	164	0.938	1.06	0.0061	1.9	1.63
Cc1cc(C)cc(Cn2c(=O)ccn([C@H]3C=C[C@@H](OC(=O)c4ccccc4)C3)c2=O)c1	15.2	0.94	1.05	15.9	1	15.7	0.82	12.4	41.3	38.6
O=C(O[C@@H]1C=C[C@H](n2ccc(=O)[nH]c2=O)C1)c1ccccc1	38.3	1.01	0.93	35.6	1	38.1	0.84	32.3	94.8	95.7
O=C(O[C@@H]1C=C[C@H](n2ccc(=O)n(Cc3ccccc3)c2=O)C1)c1ccccc1	29.1	1.34	0.95	27.7	0.9	25.5	0.72	21	34.5	46.3
Cc1cc(=O)[nH]c(=O)n1[C@H]1C=C[C@@H](O)C1	35.1	1.04	0.92	32.2	1.1	38.7	0.82	28.8	97.7	102
Cc1cc(C)cc(Cn2c(=O)cc(C)n([C@H]3C=C[C@@H](OC(=O)c4ccccc4)C3)c2=O)c1	15.1	1.11	1.03	15.6	0.9	14	0.95	14.3	25.6	28.5
CCCCCCCCCCCCC#Cc1cn([C@H]2C=C[C@@H](O)C2)c(=O)n([C@H]2C=C[C@@H](O)C2)c1=O	8	0.97	1.15	9.2	1.1	9	0.94	7.5	11.8	11.4
N#Cc1cccc(C(=O)O[C@@H]2C=C[C@H](n3ccc(=O)[nH]c3=O)C2)c1	37.8	1.02	0.92	34.9	1	36.4	0.83	31.3	94.7	96.3
O=c1[nH]c(=O)n([C@H]2C=C[C@@H](O)C2)cc1Br	37.3	1	0.96	35.7	1	36.7	0.87	32.4	97.4	97.3
O=C(O[C@@H]1C=C[C@H](n2ccc(=O)n(C(=O)c3cc(Cl)cc(Cl)c3)c2=O)C1)c1cc(Cl)cc(Cl)c1	31.8	1.03	0.93	29.5	1.1	33.9	0.79	25	89.1	91.4
Cc1cc(=O)[nH]c(=O)n1[C@H]1C=C[C@@H](OC(=O)c2ccccc2)C1	37.6	1.01	0.91	34.3	1	38.1	0.85	32	94.1	94.9
O=c1ccn([C@H]2C=C[C@@H](O)C2)c(=O)[nH]1	37.6	1.01	0.92	34.6	1	37.9	0.85	31.9	97	97.9
O=c1[nH]c(=O)n([C@H]2C=C[C@@H](O)C2)cc1Nc1ccccc1	28.1	1.01	0.76	21.4	1.1	30	0.49	13.8	94.1	95.3
Cc1cc(=O)n(C(=O)c2ccccc2)c(=O)n1[C@H]1C=C[C@@H](OC(=O)c2ccccc2)C1	33.1	0.86	0.98	32.3	1	34	0.84	27.7	26.1	22.6
O=C(O[C@@H]1C=C[C@H](n2ccc(=O)[nH]c2=O)C1)c1cc(Cl)cc(Cl)c1	33.2	1.1	0.95	31.6	1	34.8	0.8	26.7	81.5	89.4
N#Cc1cccc(C(=O)O[C@@H]2C=C[C@H](n3ccc(=O)n(Cc4ccccc4)c3=O)C2)c1	27.9	1.16	0.94	26.4	0.9	25	0.76	21.4	45.5	52.6
O=c1[nH]c(=O)n([C@H]2C=C[C@@H](O)C2)cc1I	35.3	1	0.95	33.5	1	36.2	0.87	30.8	95.2	95.6
